# Read-outs that look alike come from different tables or passages of the source.
# Columns and labels:
# CB2 receptor = molecular target: T1, CB2 receptor (Homo sapiens, UniProt P34972); experiment: Binding assay for CB2 agonists or inverse agonists (SK-N-MC membranes, [3H]-CP-55,940); settings: for CB2 receptor binding percent inhibition: test concentration not stated; for IC50: Cannabinoid CB2 Receptor Binding IC50, calculated by linear regression from percent inhibition at various test concentrations
# T1 construct: expressed in transfected cells
# Method in brief: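 Membranes from SK-N-MC cells stably expressing human CB2 were incubated with radioligand and test compounds for 90 min at 30 °C in Tris-HCl buffer, pH 7.5, with MgCl2, EDTA and fatty-acid-free BSA. Filter-bound radioactivity was counted; IC50 was derived by linear regression of percent inhibition.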
# CB1 receptor [1] = molecular target: T2, CB1 receptor (Homo sapiens, UniProt P21554); experiment: Binding assay for CB1 agonists or inverse agonists (SK-N-MC membranes, [3H]-CP-55,940); settings: for inhibition at 1 µM: read-out: CB1 receptor binding percent inhibition, test concentration 1 μM (footnote 1); for CB1 receptor binding average percent inhibition: value shown is an average percent inhibition (footnote 5), concentration not given; for inhibition at 0.5 µM: read-out: CB1 receptor binding percent inhibition, test concentration 0.5 μM (footnote 10)
# T2 construct: expressed in transfected cells
# Method in brief: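 Membranes from SK-N-MC cells stably expressing human CB1 incubated with compound and [3H]-CP-55,940 ([…]) for 90 min at 30° C in Tris-HCl pH 7.5, MgCl2, EDTA, fatty-acid-free BSA. Non-specific binding defined with 10 uM WIN 55,212; filtration, scintillation count; IC50 by linear regression.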
# CB1 receptor [2] = molecular target: T2, CB1 receptor; experiment: cell-based
# From the text: The CB1 and CB2 receptors are G-protein coupled receptors (GPCR), which influence cell function via the Gi-protein. These receptors modulate the activity of intracellular adenylate cyclase, which in turn produces the intracellular signal messenger cyclic-AMP (cAMP).
# At baseline, or during non-ligand bound conditions, these receptors are constitutively active and tonically suppress adenylate cyclase activity. The binding of an agonist causes further receptor activation and produces additional suppression of adenylate cyclase activity. The binding of an inverse agonist inhibits the constitutive activity of the receptors and results in an increase in adenylate cyclase activity.
# By monitoring intracellular adenylate cyclase activity, the ability of compounds to act as agonists or inverse agonists can be determined.
# Test compounds were evaluated in SK-N-MC cells which, using standard transfection procedures, were stably transfected with human cDNA for pcDNA3-CRE β-gal and pcDNA3 CB1 receptor (human) or pcDNA3 CB2 receptor (human). By expressing CRE β-gal, the cells produced β-galactosidase in response to CRE promoter activation by cAMP. Cells expressing CRE β-gal and either the human CB1 or CB2 receptor will produce less β-galactosidase when treated with a CB1/CB2 agonist and will produce more β-galactosidase when treated with a CB1/CB2 inverse agonist.
# The cells were grown in 96-well plates under standard cell culture conditions at 37° C. in a 5% CO2 atmosphere and culture media (wherein the media was supplemented with 2 mM L-glutamine, […] sodium pyruvate, 10% FBS (fetal bovine serum) and antibiotics).
# The change in forskolin induced β-galactosidase activity was determined by setting a vehicle treated cell's activity value at 100% and expressing the β-galactosidase activity measured in a corresponding compound treated cell as a percent of the vehicle treated cell activity.
# The EC50 value for functional activity for compounds tested was calculated by linear regression and was obtained from studies in which varying compound concentrations were used.
# Where an EC50 value was not obtained for a test compound, the value shown (in %) represents change in functional activity and was obtained from a study in which one compound concentration was used.
# [3] = CB1 Receptor Functional Inverse Agonist EC50, forskolin induced β-galactosidase activity, SK-N-MC cells
# [4] = Cannabinoid CB1 Receptor Binding IC50, calculated by linear regression from percent inhibition at various test concentrations
# [5] = forskolin induced β-galactosidase activity, SK-N-MC cells, read-out: CB1 Receptor Functional Inverse Agonist EC50
# T2 sequence (P21554 whole entry): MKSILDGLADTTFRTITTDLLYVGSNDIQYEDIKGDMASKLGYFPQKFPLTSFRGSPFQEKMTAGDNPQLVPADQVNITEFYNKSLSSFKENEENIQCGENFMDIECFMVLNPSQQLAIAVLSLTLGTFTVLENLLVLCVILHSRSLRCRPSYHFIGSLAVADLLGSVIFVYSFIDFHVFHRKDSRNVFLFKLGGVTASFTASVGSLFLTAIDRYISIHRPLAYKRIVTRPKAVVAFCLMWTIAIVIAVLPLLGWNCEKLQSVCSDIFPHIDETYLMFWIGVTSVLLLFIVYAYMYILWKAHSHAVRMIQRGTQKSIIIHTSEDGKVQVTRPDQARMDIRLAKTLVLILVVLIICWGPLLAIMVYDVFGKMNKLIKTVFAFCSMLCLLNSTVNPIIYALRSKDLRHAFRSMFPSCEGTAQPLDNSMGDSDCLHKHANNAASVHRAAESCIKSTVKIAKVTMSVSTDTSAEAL
# T1 sequence (P34972 whole entry): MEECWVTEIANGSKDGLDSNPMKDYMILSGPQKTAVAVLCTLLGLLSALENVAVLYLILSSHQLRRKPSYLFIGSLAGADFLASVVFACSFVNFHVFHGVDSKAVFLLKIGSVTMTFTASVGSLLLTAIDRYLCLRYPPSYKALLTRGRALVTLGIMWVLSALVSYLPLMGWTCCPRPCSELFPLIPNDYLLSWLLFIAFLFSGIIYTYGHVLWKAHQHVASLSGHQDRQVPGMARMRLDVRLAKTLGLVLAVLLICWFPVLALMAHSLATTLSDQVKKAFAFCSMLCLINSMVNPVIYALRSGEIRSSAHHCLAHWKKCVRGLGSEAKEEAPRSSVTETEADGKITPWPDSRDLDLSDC
SMILES,CB2 receptor binding percent inhibition (CB2 receptor) [%],inhibition at 1 µM (CB1 receptor [1]) [%],CB1 receptor binding average percent inhibition (CB1 receptor [1]),EC50 (CB1 receptor [2]; [3]) [µM],IC50 (CB1 receptor [1]; [4]) [µM],further results
"COC(=O)[C@@H](Cc1ccc(F)cc1)NC(=O)c1nn(-c2ccc(Cl)cc2Cl)c2c1CCCC[C@@H]2Cc1cccc(F)c1 [Cpd 77, (2R)-2-{[(8R)-1-(2,4-dichloro-phenyl)-8-(3-fluoro-benzyl)-1,4,5,6,7,8-hexahydro-cycloheptapyrazole-3-carbonyl]-amino}-3-(4-fluoro-phenyl)-propionic acid methyl ester]",28,44,57%,0.1,–,CB1 receptor binding percent inhibition (CB1 receptor [1]; test concentration not stated): 51%
"COC(=O)[C@@H](Cc1ccc(F)cc1)NC(=O)c1nn(-c2ccc(Cl)cc2Cl)c2c1CCCC[C@H]2Cc1cccc(F)c1 [Cpd 78, (2R)-2-{[(8S)-1-(2,4-dichloro-phenyl)-8-(3-fluoro-benzyl)-1,4,5,6,7,8-hexahydro-cycloheptapyrazole-3-carbonyl]-amino}-3-(4-fluoro-phenyl)-propionic acid methyl ester]",23,–,59%,0.2,0.4,–
"CCOC(=O)[C@H]1C2C=CC(C2)[C@H]1NC(=O)c1nn(-c2ccc(Cl)cc2Cl)c2c1CCCCC2Cc1cccc(F)c1 (stereo partly drawn) [Cpd 79, (2S,3R)-3-{[1-(2,4-dichloro-phenyl)-8-(3-fluoro-benzyl)-1,4,5,6,7,8-hexahydro-cycloheptapyrazole-3-carbonyl]-amino}-bicyclo[2.2.1]hept-5-ene-2-carboxylic acid ethyl ester]",29,–,^(5)37%,0.5,–,–
"COC(=O)[C@@H](Cc1ccc(O)cc1)NC(=O)c1nn(-c2ccc(Cl)cc2Cl)c2c1CCCCC2Cc1cccc(F)c1 (stereo partly drawn) [Cpd 80, (2R)-2-{[1-(2,4-dichloro-phenyl)-8-(3-fluoro-benzyl)-1,4,5,6,7,8-hexahydro-cycloheptapyrazole-3-carbonyl]-amino}-3-(4-hydroxy-phenyl)-propionic acid methyl ester]",23,–,51%,0.06,0.7,–
"COC(=O)[C@@H](Cc1ccc(O)cc1)NC(=O)c1nn(-c2ccc(Cl)cc2Cl)c2c1CCCCC2Cc1ccc(F)cc1 (stereo partly drawn) [Cpd 81, (2R)-2-{[1-(2,4-dichloro-phenyl)-8-(4-fluoro-benzyl)-1,4,5,6,7,8-hexahydro-cycloheptapyrazole-3-carbonyl]-amino}-3-(4-hydroxy-phenyl)-propionic acid methyl ester]",28,–,^(5)42%,–,–,EC50 (CB1 receptor [2]; [5]): 0.3 µM
"COC(=O)[C@@H](Cc1ccc(O)cc1)NC(=O)c1nn(C2CCCCC2)c2c1CCCCC2Cc1ccc(F)cc1 (stereo partly drawn) [Cpd 83, (2R)-2-{[1-cyclohexyl-8-(4-fluoro-benzyl)-1,4,5,6,7,8-hexahydro-cycloheptapyrazole-3-carbonyl]-amino}-3-(4-hydroxy-phenyl)-propionic acid methyl ester]",–,–,90%,–,0.1,"IC50 (CB2 receptor): 0.01 µM; CB2 receptor binding average percent inhibition (CB2 receptor; value shown is an average percent inhibition (footnote 5), concentration not given): 98%; EC50 (CB1 receptor [2]; CB1 Receptor Functional Agonist EC50, SK-N-MC cells, forskolin induced β-galactosidase activity): 1.7 µM"
"O=C(NN1CCCCC1)c1nn(-c2ccc(Cl)cc2Cl)c2c1CCCCC2Cc1cccc(F)c1 (stereo not drawn) [Cpd 84, 1-(2,4-dichloro-phenyl)-8-(3-fluoro-benzyl)-1,4,5,6,7,8-hexahydro-cycloheptapyrazole-3-carboxylic acid piperidin-1-ylamide]",11,–,67%,0.1,0.7,–
"O=C(NN1CCCCC1)c1nn(-c2ccc(Cl)cc2Cl)c2c1CCCCC2Cc1ccc(F)cc1 (stereo not drawn) [Cpd 85, 1-(2,4-dichloro-phenyl)-8-(4-fluoro-benzyl)-1,4,5,6,7,8-hexahydro-cycloheptapyrazole-3-carboxylic acid piperidin-1-ylamide]",5,–,^(5)39%,–,–,EC50 (CB1 receptor [2]; [5]): 0.3 µM
"O=C(NN1CCOCC1)c1nn(-c2ccc(Cl)cc2Cl)c2c1CCCCC2Cc1cccc(F)c1 (stereo not drawn) [Cpd 91, 1-(2,4-dichloro-phenyl)-8-(3-fluoro-benzyl)-1,4,5,6,7,8-hexahydro-cycloheptapyrazole-3-carboxylic acid morpholin-4-ylamide]",0,68,–,0.07,0.3,–
"CC12CCC(C1)C(C)(C)[C@H]2NC(=O)c1nn(-c2ccc(F)cc2F)c2c1CCCCC2Cc1cccc(F)c1 (stereo partly drawn) [Cpd 92, 1-(2,4-difluoro-phenyl)-8-(3-fluoro-benzyl)-1,4,5,6,7,8-hexahydro-cycloheptapyrazole-3-carboxylic acid [(2S)-1,3,3-trimethyl-bicyclo[2.2.1]hept-2-yl]-amide]",–,86,–,0.09,0.1,"IC50 (CB2 receptor): 0.2 µM; inhibition at 1 µM (CB2 receptor; read-out: CB2 receptor binding percent inhibition, test concentration 1 μM (footnote 1)): 82%"
"C[C@H](NS(=O)(=O)/C=C/c1nn(-c2ccc(F)cc2F)c2c1CCCCC2Cc1cccc(F)c1)c1ccccc1 (stereo partly drawn) [Cpd 93, (2E)-2-[1-(2,4-difluoro-phenyl)-8-(3-fluoro-benzyl)-1,4,5,6,7,8-hexahydro-cycloheptapyrazol-3-yl]-ethenesulfonic acid [(1S)-1-phenyl-ethyl]-amide]",58,70,–,0.05,0.4,–
"C[C@H](NS(=O)(=O)/C=C/c1nn(-c2ccc(F)cc2F)c2c1CCCCC2Cc1cccc(F)c1)C1CCCCC1 (stereo partly drawn) [Cpd 94, (2E)-2-[1-(2,4-difluoro-phenyl)-8-(3-fluoro-benzyl)-1,4,5,6,7,8-hexahydro-cycloheptapyrazol-3-yl]-ethenesulfonic acid [(1S)-1-cyclohexyl-ethyl]-amide]",1,38,–,–,–,EC50 (CB1 receptor [2]; [5]): 0.2 µM
"CCOC(=O)[C@H]1C2C=CC(C2)[C@H]1NC(=O)c1nn(-c2ccc(F)cc2F)c2c1CCCCC2Cc1cccc(F)c1 (stereo partly drawn) [Cpd 99, (2S,3R)-3-{[1-(2,4-difluoro-phenyl)-8-(3-fluoro-benzyl)-1,4,5,6,7,8-hexahydro-cycloheptapyrazole-3-carbonyl]-amino}-bicyclo[2.2.1]hept-5-ene-2-carboxylic acid ethyl ester]",24,17,–,–,–,EC50 (CB1 receptor [2]; [5]): 0.2 µM
"COC(=O)[C@@H](Cc1ccc(O)cc1)NC(=O)c1nn(-c2ccc(Cl)cc2Cl)c2c1CCCCC2Cc1cccc(Cl)c1 (stereo partly drawn) [Cpd 102, (2R)-2-{[8-(3-chloro-benzyl)-1-(2,4-dichloro-phenyl)-1,4,5,6,7,8-hexahydro-cycloheptapyrazole-3-carbonyl]-amino}-3-(4-hydroxy-phenyl)-propionic acid methyl ester]",59,77,–,0.07,0.6,inhibition at 0.5 µM (CB1 receptor [1]): 55%
"C[C@H](NS(=O)(=O)/C=C/c1nn(C)c2c1CCCCC2Cc1cccc(F)c1)c1ccccc1 (stereo partly drawn) [Cpd 104, (2E)-2-[8-(3-fluoro-benzyl)-1-methyl-1,4,5,6,7,8-hexahydro-cycloheptapyrazol-3-yl]-ethenesulfonic acid [(1S)-1-phenyl-ethyl]-amide]",93,19,–,0.1,–,–
"C[C@H](NS(=O)(=O)/C=C/c1nn(-c2ccc(F)cc2F)c2c1CCCCC2Cc1ccc(F)cc1)c1ccccc1 (stereo partly drawn) [Cpd 107, (2E)-2-[1-(2,4-difluoro-phenyl)-8-(4-fluoro-benzyl)-1,4,5,6,7,8-hexahydro-cycloheptapyrazol-3-yl]-ethenesulfonic acid [(1S)-1-phenyl-ethyl]-amide]",64,72,–,–,–,"IC50 (CB1 receptor [1]; calculated by linear regression from percent inhibition at various test concentrations, read-out: Cannabinoid CB1 Receptor Binding IC50): 0.3 µM; inhibition at 0.5 µM (CB1 receptor [1]): 59%; EC50 (CB1 receptor [2]; SK-N-MC cells, forskolin induced β-galactosidase activity, read-out: CB1 Receptor Functional Agonist EC50): 19.8 µM"

# Source: patent US8378117B2 (priority 2005, dated 2013)
